Source: US7196110B2, “N-substituted tricyclic 3-aminopyrazoles as inhibitors for the treatment of cell proliferative disorders” (Janssen Phamaceutica N.V., priority 2002, dated 2007)
“And” between values parts separate entries of the source, which are not always exact repeats. Identical values can stand only once.

Legend:
c-Abl kinase = c-Abl kinase (Abelson murine leukemia virus, UniProt P00521); assay: Inhibition of c-Abl kinase activity (cell-free, Abl peptide substrate, 33P Flashplate); assay type: biochemical; conditions: IC50 for the c-Abl kinase activity
Protocol: The inhibitory activity of compounds within the scope of the invention on c-Abl kinase activity was tested according to the following procedure.
• 1. 10× Kinase Buffer [500 mM Tris-HCl pH=8, 100 mM MgCl2, 1 mM Na3VO4] • 2. 10 mM DTT [final concentration 1 mM] • 3. 10 mM ATP [final concentration 5 μM] (Gibco, Cat No:18330-019, Carlsbad, Calif.) • 4. ^33P-γ-ATP [NEG-602H; 2000–3000 Ci/mmol], 2 μCuries per well at 10 μCi/μl (0.2 μl/well) • 5. Abl enzyme (New England Biolabs, Cat No. P6050L, Beverly, Mass.) at 100 Units/μl use 10 Units/well (0.1 μl/well) • 6. Enzyme Dilution Buffer [50 mM Tris-HCl pH=8.0, 0.1% BSA] • 7. Wash/Stop Buffer [PBS+100 mM EDTA] • 8. NEN Streptavidin Flashplates (New England Nuclear, Cat No. SMP-103, Boston, Mass.). • 9. Abl Peptide Substrate (Biotin-[…]-amide) at 1 mM in 50 mM Tris-HCL pH=8.0. (Use at 1.0 μM). Procedure
Reagents were first mixed according to the following regimen:
The above reaction mixture was dispensed into each well of a Flashplate at 70 μl/well. To test the effect of a compound on Abl kinase activity, the test compound either in a fixed concentration or in serially diluted concentrations in 100% DMSO was added to appropriate wells at 1 μl/well.
Enzyme Abl was diluted in enzyme dilution buffer as following:
The kinase reaction was started by adding 30 μl of diluted Abl enzyme solution to each well on the Flashplate containing hot ATP (2 μCi/well) and Abl peptide substrate (at 1 μM final conc.), except wells of column 12 rows E and F, which were used to calculate the plate background. The Flashplate was swirled to mix and was incubated at 30° C. for 60 minutes. Then, the reaction mixture was discarded and the Flashplate was washed 3 times each with 200 μL Wash/Stop Buffer. Subsequently, each well on the Flashplate was filled with 200 μl of Wash/Stop buffer. The amount of ^33P retained in each well was measured using a Packard TopCount after the plate was sealed with a transparent plate sealer.
In order to test the potency of inhibition of present compounds, an IC50 for an individual compound was measured using the above procedure. As used herein, the IC50 for c-Abl kinase activity refers to the concentration of an inhibitor at which the activity of c-Abl kinase is reduced by one-half as compared with reactions containing no inhibitor.

[1] = molecular target: T1, PDGF-receptor beta enzyme comprising the tyrosine kinase domain (Homo sapiens, UniProt P09619); assay: Inhibition of PDGF-receptor kinase activity (cell-free, PLC1 peptide, 33P Flashplate); assay type: biochemical; conditions: PDGF-R kinase activity; for inhibition at 10 µM: compound at 10 uM, read-out: Percent Inhibition @ 10 uM; for IC50: read-out: IC50
T1 construct: from amino acid 545 to 1106 of GenBank Access NO: AAA36427
In short: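 Recombinant kinase domain (aa 545–1106) phosphorylated a biotinylated PLC1 peptide with 5 μM ATP plus 33P-γ-ATP, in Tris pH 8, MgCl2, Na3VO4 and 1 mM DTT, for 60 min at 30 °C. Retained 33P was counted after washing. IC50 is the concentration halving activity versus no-inhibitor reactions.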

T1 sequence (P09619 545-1106): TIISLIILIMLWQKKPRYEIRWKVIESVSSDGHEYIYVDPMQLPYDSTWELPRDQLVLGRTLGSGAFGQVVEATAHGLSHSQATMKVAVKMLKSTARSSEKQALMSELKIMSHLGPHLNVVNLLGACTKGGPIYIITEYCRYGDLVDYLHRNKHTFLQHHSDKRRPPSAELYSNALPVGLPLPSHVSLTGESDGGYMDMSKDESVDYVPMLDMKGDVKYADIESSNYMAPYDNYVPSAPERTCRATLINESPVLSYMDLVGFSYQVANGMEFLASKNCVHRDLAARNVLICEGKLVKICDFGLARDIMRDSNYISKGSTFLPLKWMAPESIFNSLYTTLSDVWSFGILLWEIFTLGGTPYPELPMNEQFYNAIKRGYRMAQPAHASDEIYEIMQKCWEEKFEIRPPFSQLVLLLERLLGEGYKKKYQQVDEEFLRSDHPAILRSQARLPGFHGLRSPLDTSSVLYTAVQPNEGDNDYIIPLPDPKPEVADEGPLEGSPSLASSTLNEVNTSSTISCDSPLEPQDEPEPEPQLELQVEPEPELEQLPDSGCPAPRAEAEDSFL
c-Abl kinase, sequence (P00521 115-385): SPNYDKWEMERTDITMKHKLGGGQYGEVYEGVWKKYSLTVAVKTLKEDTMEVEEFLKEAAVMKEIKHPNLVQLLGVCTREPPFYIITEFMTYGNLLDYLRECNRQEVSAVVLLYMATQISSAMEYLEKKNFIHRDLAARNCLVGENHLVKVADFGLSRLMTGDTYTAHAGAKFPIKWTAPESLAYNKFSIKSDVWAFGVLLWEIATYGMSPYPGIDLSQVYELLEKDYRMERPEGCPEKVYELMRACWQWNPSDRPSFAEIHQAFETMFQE

SMILES	IC50 (c-Abl kinase)	inhibition at 10 µM [1]	IC50 [1]
COc1cc2c(cc1OCCCN1CCOCC1)Cc1c-2n[nH]c1Nc1cccnc1 [Compound 129, [7-Methoxy-6-(3-morpholin-4-yl-propoxy)-2,4-dihydro-indeno[1,2-c]pyrazol-3-yl]-pyridin-3-yl-amine]	10800 nM and 2360 nM	53.5%	36.7 nM
COc1cc2c(cc1OCCCN1CCOCC1)Cc1c-2n[nH]c1Nc1cccc(Br)c1 [Compound 130, (3-Bromo-phenyl)-[7-methoxy-6-(3-morpholin-4-yl-propoxy)-2,4-dihydro-indeno[1,2-c]pyrazol-3-yl]-amine]	236 nM	94.5%	2.15 nM
COc1cc2c(cc1OCCCN1CCOCC1)Cc1c-2n[nH]c1Nc1cccc(Cl)c1 [Compound 132, (3-Chloro-phenyl)-[7-methoxy-6-(3-morpholin-4-yl-propoxy)-2,4-dihydro-indeno[1,2-c]pyrazol-3-yl]-amine]	665 nM	79%	5.37 nM
COC(=O)c1cccc(Nc2[nH]nc3c2Cc2cc(OCCCN4CCOCC4)c(OC)cc2-3)c1 [Compound 133, 3-[7-Methoxy-6-(3-morpholin-4-yl-propoxy)-2,4-dihydro-indeno[1,2-c]pyrazol-3-ylamino]-benzoic acid methyl ester]	498 nM	53%	37.9 nM
COc1cc2c(cc1OCCCN1CCOCC1)Cc1c-2n[nH]c1Nc1cccc(F)c1 [Compound 134, (3-Fluoro-phenyl)-[7-methoxy-6-(3-morpholin-4-yl-propoxy)-2,4-dihydro-indeno[1,2-c]pyrazol-3-yl]-amine]	1160 nM	96%	10.1 nM
COCCCOc1ccc2c(c1)Cc1c-2n[nH]c1Nc1ccccc1 [Compound 140, [6-(3-Methoxy-propoxy)-2,4-dihydro-indeno[1,2-c]pyrazol-3-yl]-phenyl-amine]	1410 nM	56.5%	13.7 nM
COc1cccc(Nc2[nH]nc3c2Cc2cc(OCCCN4CCCC4)c(OC)cc2-3)c1 [Compound 156, (3-Methoxy-phenyl)-[7-methoxy-6-(3-pyrrolidin-1-yl-propoxy)-2,4-dihydro-indeno[1,2-c]pyrazol-3-yl]-amine]	89 nM	87.5%	1 nM
CN(C)CCCOc1ccc2c(c1)Cc1c-2n[nH]c1Nc1cccc(F)c1 [Compound 160, [6-(3-Dimethylamino-propoxy)-2,4-dihydro-indeno[1,2-c]pyrazol-3-yl]-(3-fluoro-phenyl)-amine]	1020 nM	94.5%	58.5 nM
COc1ccc2c(c1)-c1n[nH]c(Nc3ccc(F)cc3)c1C2 [Compound 170, (4-Fluoro-phenyl)-(7-methoxy-2,4-dihydro-indeno[1,2-c]pyrazol-3-yl)-amine]	75 nM	95.5%	26.8 nM
COc1ccc2c(c1)-c1n[nH]c(Nc3cccc(F)c3)c1C2 [Compound 172, (3-Fluoro-phenyl)-(7-methoxy-2,4-dihydro-indeno[1,2-c]pyrazol-3-yl)-amine]	84 nM	55%	13.3 nM
COc1cc2c(cc1OCCCN1CCOCC1)Cc1c-2n[nH]c1Nc1ccc(F)c(Cl)c1 [Compound 179, (3-Chloro-4-fluoro-phenyl)-[7-methoxy-6-(3-morpholin-4-yl-propoxy)-2,4-dihydro-indeno[1,2-c]pyrazol-3-yl]-amine]	870 nM	92%	71.2 nM
COc1cc2c(cc1OCCCN1CCCC1)Cc1c-2n[nH]c1Nc1cccc(F)c1 [Compound 180, (3-Fluoro-phenyl)-[7-methoxy-6-(3-pyrrolidin-1-yl-propoxy)-2,4-dihydro-indeno[1,2-c]pyrazol-3-yl]-amine]	82 nM	98.5%	13.3 nM
COc1cc2c(cc1OCCCN1CCCC1)Cc1c-2n[nH]c1Nc1ccc(F)c(Cl)c1 [Compound 181, (3-Chloro-4-fluoro-phenyl)-[7-methoxy-6-(3-pyrrolidin-1-yl-propoxy)-2,4-dihydro-indeno[1,2-c]pyrazol-3-yl]-amine]	56 nM	74.5%	15.4 nM
Cc1ccc2c(c1)-c1n[nH]c(Nc3cccc(F)c3)c1C2 [Compound 182, (3-Fluoro-phenyl)-(7-methyl-2,4-dihydro-indeno[1,2-c]pyrazol-3-yl)-amine]	93 nM	107%	5 nM
Cc1ccc2c(c1)-c1n[nH]c(Nc3cc(F)ccc3F)c1C2 [Compound 185, (2,5-Difluoro-phenyl)-(7-methyl-2,4-dihydro-indeno[1,2-c]pyrazol-3-yl)-amine]	666 nM	84%	50 nM
Clc1ccc2c(c1)Cc1c-2n[nH]c1Nc1cccnc1 [Compound 188, (6-Chloro-2,4-dihydro-indeno[1,2-c]pyrazol-3-yl)-pyridin-3-yl-amine]	1400 nM	74%	43.7 nM
COc1cccc(Nc2[nH]nc3c2Cc2cc(Cl)ccc2-3)c1 [Compound 190, (6-Chloro-2,4-dihydro-indeno[1,2-c]pyrazol-3-yl)-(3-methoxy-phenyl)-amine]	69 nM	80%	40 nM
COc1cc2c(cc1OCCCN(C)C)Cc1c-2n[nH]c1Nc1cccc(F)c1 [Compound 199, [6-(3-Dimethylamino-propoxy)-7-methoxy-2,4-dihydro-indeno[1,2-c]pyrazol-3-yl]-(3-fluoro-phenyl)-amine]	27 nM	83%	5.9 nM
COc1cc2c(cc1OCCCN(C)C)Cc1c-2n[nH]c1Nc1ccc(F)c(Cl)c1 [Compound 200, (3-Chloro-4-fluoro-phenyl)-[6-(3-dimethylamino-propoxy)-7-methoxy-2,4-dihydro-indeno[1,2-c]pyrazol-3-yl]-amine]	20 nM	87%	2 nM
Fc1ccc(Nc2[nH]nc3c2Cc2cc(F)ccc2-3)cc1 [Compound 201, (6-Fluoro-2,4-dihydro-indeno[1,2-c]pyrazol-3-yl)-(4-fluoro-phenyl)-amine]	217 nM	96%	9 nM
Fc1ccc2c(c1)Cc1c-2n[nH]c1Nc1ccc(F)c(Cl)c1 [Compound 202, (3-Chloro-4-fluoro-phenyl)-(6-fluoro-2,4-dihydro-indeno[1,2-c]pyrazol-3-yl)-amine]	2650 nM	77%	12.4 nM
COc1ccc(OC)c(Nc2[nH]nc3c2Cc2cc(F)ccc2-3)c1 [Compound 203, (2,5-Dimethoxy-phenyl)-(6-fluoro-2,4-dihydro-indeno[1,2-c]pyrazol-3-yl)-amine]	160 nM	86%	16 nM
COc1cc(Nc2[nH]nc3c2Cc2cc(F)ccc2-3)cc(OC)c1 [Compound 204, (3,5-Dimethoxy-phenyl)-(6-fluoro-2,4-dihydro-indeno[1,2-c]pyrazol-3-yl)-amine]	165 nM	90%	38 nM
COc1ccc(Nc2[nH]nc3c2Cc2cc(F)ccc2-3)cc1OC [Compound 205, (3,4-Dimethoxy-phenyl)-(6-fluoro-2,4-dihydro-indeno[1,2-c]pyrazol-3-yl)-amine]	328 nM	86%	47 nM
COc1cc2c(cc1OC)-c1n[nH]c(Nc3cc(F)cc(F)c3)c1C2 [Compound 207, (3,5-Difluoro-phenyl)-(6,7-dimethoxy-2,4-dihydro-indeno[1,2-c]pyrazol-3-yl)-amine]	62 nM	89%	10 nM
COc1cc2c(cc1OC)-c1n[nH]c(Nc3cccc(SC)c3)c1C2 [Compound 208, (6,7-Dimethoxy-2,4-dihydro-indeno[1,2-c]pyrazol-3-yl)-(3-methylsulfanyl-phenyl)-amine]	9 nM	82%	3 nM
